Test: solubility in gastric fluids
Assay type: physicochemical
Details: compared to other salts of the compound of formula I, i.e., HCl

SMILES: C#Cc1cccc(-c2cc(=O)n(C)c3ccc(C(O)(c4ccc(Cl)cc4)c4cncn4C)cc23)c1.O=C(O)C(O)C(O)C(=O)O (stereo not shown) [6-[(4-chloro-phenyl)-hydroxy-(3-methyl-3H-imidazol-4-yl)-methyl]-4-(3-ethynyl-phenyl)-1-methyl-1H-quinolin-2-one, 2,3-dihydroxybutanedioate (1:1)]
- solubility in gastric fluids: improved solubility
